Laboratory results from patent publication US12024500B2, “Five-membered ring-substituted pyridazinol compounds and derivatives, preparation methods, herbicidal compositions and applications thereof” (Qingdao Kingagroot Chemical Compound Co., Ltd., priority 2018, dated 2024).

Tests used:
Format in all cases: in vivo
Setaria viridis = assay: Post-emergence weed control test (greenhouse pot, spray); settings: 3 weeks after spraying; for inhibition at 2000 g/ha: Setaria viridis, 504 h, read-out: weed control effect (activity level, fresh weight growth inhibition rate), Setaria viridis; for weed control effect (activity level), Setaria viridis, comparison experiment: 300 g/ha
Text: (§1) The activity level standard of harmful plant destruction (i.e. growth inhibition rate) is as follows: • Level 10: completely dead; • Level 9: above 90% growth inhibition rate; • Level 8: above 80% growth inhibition rate; • Level 7: above 70% growth inhibition rate; • Level 6: above 60% growth inhibition rate; • Level 5: above 50% growth inhibition rate; • Level 4: above 40% growth inhibition rate; • Level 3: above 30% growth inhibition rate; • Level 2: above 20% growth inhibition rate; • Level 1: below 20% growth inhibition rate; • Level 0: no effect.
(§2) The above described growth inhibition rates are fresh weight inhibition rates.
(§3) Experiment of post-emergence test: monocotyledonous and dicotyledonous weed seeds as well as main crop seeds (i.e., wheat, corn, rice, soybean, cotton, oilseed rape, millet and sorghum) were put into a plastic pot loaded with soil, then covered with 0.5-2 cm of soil, and the seeds were allowed to grow in good greenhouse environment. The test plants were treated at 4-5 leaf stage 2-3 weeks after sowing. The test compounds of the invention were dissolved in acetone respectively, then added with Tween-80 and diluted by a certain amount of water to give solutions with certain concentrations. The solution was sprayed to the plants with a sprayer. The plants were cultured for 3 weeks in the greenhouse.

Amaranthus retroflexus = assay: as above; settings: 3 weeks after spraying
Text: as §1, §2, §3

Chenopodiaceae = assay: as above; settings: 3 weeks after spraying
Text: as §1, §2, §3

Veronica polita = assay: as above; settings: 3 weeks after spraying; for weed control effect (activity level), Veronica polita, comparison experiment: 300 g/ha
Text: as §1, §2, §3

Rorippa indica = assay: as above; settings: 3 weeks after spraying; for weed control effect (activity level), Rorippa indica, comparison experiment: 300 g/ha
Text: as §1, §2, §3

Digitaria sanguinalis = assay: Post-emergence weed control test (comparative experiment); settings: 300 g/ha, 3 weeks after spraying
Text: as §1, §2, §3

Echinochloa crus-galli = assay: as above; settings: 300 g/ha, 3 weeks after spraying
Text: as §1, §2, §3

[1] = Amaranthus retroflexus, 504 h, read-out: weed control effect (activity level, fresh weight growth inhibition rate), Amaranthus retroflexus
[2] = 504 h, read-out: weed control effect (activity level, fresh weight growth inhibition rate), Chenopodiaceae
[3] = Veronica polita, 504 h, read-out: weed control effect (activity level, fresh weight growth inhibition rate), Veronica polita

Structure (SMILES) | inhibition at 2000 g/ha (Setaria viridis) [%] | inhibition at 2000 g/ha (Amaranthus retroflexus; [1]) [%] | inhibition at 2000 g/ha (Chenopodiaceae; [2]) [%] | inhibition at 2000 g/ha (Veronica polita; [3]) [%] | weed control effect (activity level), Setaria viridis, comparison experiment (Setaria viridis) | weed control effect (activity level, fresh weight growth inhibition rate), Amaranthus retroflexus (Amaranthus retroflexus; 3000 g/ha) | weed control effect (activity level, fresh weight growth inhibition rate), Chenopodiaceae (Chenopodiaceae; 3000 g/ha) | weed control effect (activity level), Rorippa indica, comparison experiment (Rorippa indica) | weed control effect (activity level, fresh weight growth inhibition rate), Rorippa indica (Rorippa indica; 3000 g/ha) | weed control effect (activity level), Veronica polita, comparison experiment (Veronica polita) | weed control effect (activity level, fresh weight growth inhibition rate), Veronica polita (Veronica polita; 3000 g/ha) | weed control effect (activity level), Digitaria sanguinalis, comparison experiment (Digitaria sanguinalis) | weed control effect (activity level), Echinochloa crus-galli, comparison experiment (Echinochloa crus-galli) | also measured
Cc1cc(-c2nnc(Cl)cc2OC(=S)Oc2cccs2)n(C)n1 [Compound 1-5] | 100 | 100 | 100 | 100 | – | – | – | – | – | – | – | – | – | –
Cc1cc(-c2nnc(Cl)cc2OC(=O)N2CCOCC2)n(C)n1 [Compound 1-9] | 100 | 100 | 100 | 100 | – | – | – | – | – | – | – | – | – | –
Cn1nccc1-c1nnc(Cl)cc1O [Compound 29] | – | – | – | – | 10 | 10 (Level 10: completely dead) | 10 (Level 10: completely dead) | 10 | 10 (Level 10: completely dead) | 9 (Level 9: above 90% growth inhibition rate) | 10 (Level 10: completely dead) | 6 (Level 6: above 60% growth inhibition rate) | 8 (Level 8: above 80% growth inhibition rate) | –
CCSC(=O)Oc1cc(Cl)nnc1-c1cc(C)nn1C [Compound 1-8] | 100 | 100 | 100 | 100 | – | – | – | – | – | – | – | – | – | –
Oc1cc(Cl)nnc1-c1ccccc1 [Control Compound A, reference compound] | – | – | – | – | 2 (Level 2: above 20% growth inhibition rate) | – | – | 2 (Level 2: above 20% growth inhibition rate) | – | 5 (Level 5: above 50% growth inhibition rate) | – | 0 | 0 | –
Cc1cc(-c2nnc(Cl)cc2O)n(C)n1 [Compound 1] | – | – | – | – | 10 | – | – | 10 | – | 10 | – | 7 (Level 7: above 70% growth inhibition rate) | 8 (Level 8: above 80% growth inhibition rate) | inhibition at 3000 g/ha (Amaranthus retroflexus; Amaranthus retroflexus, 504 h, 3000 g/ha, read-out: weed control effect (activity level, fresh weight growth inhibition rate), Amaranthus retroflexus): 100%; inhibition at 3000 g/ha (Chenopodiaceae; 504 h, 3000 g/ha, read-out: weed control effect (activity level, fresh weight growth inhibition rate), Chenopodiaceae): 100%; inhibition at 3000 g/ha (Rorippa indica; Rorippa indica, 504 h, 3000 g/ha, read-out: weed control effect (activity level, fresh weight growth inhibition rate), Rorippa indica): 100%; inhibition at 3000 g/ha (Veronica polita; Veronica polita, 504 h, 3000 g/ha, read-out: weed control effect (activity level, fresh weight growth inhibition rate), Veronica polita): 100%
CCCCCCCCSC(=O)Oc1cc(Cl)nnc1-c1ccccc1 [Control Compound B, reference compound] | – | – | – | – | 2 (Level 2: above 20% growth inhibition rate) | – | – | 3 (Level 3: above 30% growth inhibition rate) | – | 5 (Level 5: above 50% growth inhibition rate) | – | 0 | 0 | –
Cc1cc(-c2nnc(Cl)cc2OC(C)OC(=O)OC(C)C)n(C)n1 (stereo not shown) [Compound 1-6] | 100 | 100 | 100 | 100 | – | – | – | – | – | – | – | – | – | –
Cn1nc(C(F)F)cc1-c1nnc(Cl)cc1O [Compound 74] | – | – | – | – | – | 10 (Level 10: completely dead) | 10 (Level 10: completely dead) | – | 10 (Level 10: completely dead) | – | 10 (Level 10: completely dead) | – | – | –
CCc1cnn(C)c1-c1nnc(Cl)cc1O [Compound 81] | – | – | – | – | – | 10 (Level 10: completely dead) | 10 (Level 10: completely dead) | – | 10 (Level 10: completely dead) | – | 10 (Level 10: completely dead) | – | – | –
Cc1ccc(-c2nnc(Cl)cc2O)s1 [Compound 27] | – | – | – | – | – | 10 (Level 10: completely dead) | 10 (Level 10: completely dead) | – | 10 (Level 10: completely dead) | – | 10 (Level 10: completely dead) | – | – | –
Cn1nc(C2CC2)cc1-c1nnc(Cl)cc1O [Compound 61] | – | – | – | – | – | 10 (Level 10: completely dead) | 10 (Level 10: completely dead) | – | 10 (Level 10: completely dead) | – | 10 (Level 10: completely dead) | – | – | –
CCCCCOC(=O)Oc1cc(Cl)nnc1-c1cc(C)nn1C [Compound 1-1] | 100 | 100 | 100 | 100 | 10 | – | – | 10 | – | 10 | – | 8 (Level 8: above 80% growth inhibition rate) | 8 (Level 8: above 80% growth inhibition rate) | –
Cn1ccnc1-c1nnc(Cl)cc1O [Compound 3] | – | – | – | – | – | 10 (Level 10: completely dead) | 10 (Level 10: completely dead) | – | 10 (Level 10: completely dead) | – | 10 (Level 10: completely dead) | – | – | –
